Reference: patent US20080227752A1, “Methods to Inhibit Histone Acetyltransferase Using Glycosaminoglycans” (Trustees of Boston University, priority 2004, published 2008)

How the values were obtained:
p300 HAT domain = target: T1, p300 HAT domain (Homo sapiens, UniProt Q09472); assay: In vitro HAT activity assay, biotinylated histone H4 peptide substrate, streptavidin capture; assay type: biochemical
T1 construct: 20 U/mL of HAT enzyme (p300 HAT domain; from Upstate); purchased Upstate (Lake Placid, N.Y.)
T1 sequence (Q09472 1287-1663 limits assumed): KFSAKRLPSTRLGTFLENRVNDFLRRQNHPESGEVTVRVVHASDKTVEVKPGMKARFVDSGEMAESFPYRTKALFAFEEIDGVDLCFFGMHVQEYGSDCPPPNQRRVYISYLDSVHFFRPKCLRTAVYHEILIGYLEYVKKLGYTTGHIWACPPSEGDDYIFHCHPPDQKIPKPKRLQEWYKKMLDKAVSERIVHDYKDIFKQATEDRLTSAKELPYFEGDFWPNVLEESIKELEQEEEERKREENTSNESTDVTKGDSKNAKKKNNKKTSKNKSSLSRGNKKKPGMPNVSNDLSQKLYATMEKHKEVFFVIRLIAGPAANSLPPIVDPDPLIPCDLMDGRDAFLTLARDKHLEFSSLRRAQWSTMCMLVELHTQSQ
Protocol: Biotinylated histone H4 peptide (substrate) is incubated with recombinant HAT enzyme (p300 catalytic domain) and ^3H-Acetyl-CoA, resulting in the covalent transfer of ^3H-acetate to the substrate. The ^3H-acetylated substrate can be extracted using immobilized streptavidin and counted in a scintillation counter. Thus, the amount of ^3H-acetylated substrate is a direct measure of HAT enzyme activity. Additional assays for HAT activity use core histones as the substrate and the ^3H-acetylated histone reaction products were separated from ^3H-Acetyl-CoA by membrane filtration.
Various concentrations of heparin were incubated in the presence of biotinylated histone H4 peptide, recombinant p300 catalytic domain, and [^3H]-acetyl-CoA for 1 hr at 30° C. Immobilized streptavidin was used to sequester the biotinylated substrate and was counted in a scintillation counter. Data presented are means of duplicates ±1 SE and are representative of five separate experiments. The amount of [^3H] associated with the immobilized streptavidin-biotinylated substrate in the absence of HAT enzyme (negative control) was 54.2±12.0.
HAT activity was assessed in vitro as outlined in FIG. 2. In a 1.7 mL microcentrifuge tube, 100 μL of substrate (biotinylated histone H4 peptide in 50 mM Tris, pH 7.4, 1 mM EDTA; from Pierce), 100 μL of a 5 mg/mL BSA solution (in H2O), 10.5 μL of 10×HAT buffer (500 mM Tris, pH 7.4, 10 mM EDTA), 20 U/mL of HAT enzyme (p300 HAT domain; from Upstate), and 1 μCi/mL of [^3H] Acetyl-CoA (Amersham) were mixed together and the reaction was allowed to proceed at 30° C. for 1 hour. Following this incubation, 100 μL of a 1:1 slurry of immobilized streptavidin (Pierce) pre-equilibrated in 1×HAT buffer (50 mM Tris, pH 7.4, 1 mM EDTA) was added and the sample was incubated for 30 min at RT on a rotating platform. After centrifugation at 10,000 g for 4 min, the supernatant containing the excess reactants was removed and the pellet containing the acetylated substrate bound to the immobilized streptavidin was washed 3 times with 500 μL RIPA buffer (50 mM Tris, pH 7.4, 150 mM NaCl, 1 mM EDTA, 1% NP-40, 0.5% SDC, 0.1% SDS). After the final wash, the pellet was resuspended in 500 μL 1×HAT buffer, diluted in EcoLite, and counted in a scintillation counter. Because of sample volume restrictions, reaction volumes were scaled down in some experiments.

[1] = tested on: histone H3 acetylation in pulmonary fibroblasts; assay: Histone H3 acetylation in pulmonary fibroblasts by western blot; assay type: cell-based, neonatal rat; conditions: 10 μg/ml, 24 h
Protocol: Primary neonatal rat fibroblasts and smooth muscle cells were established as described (Foster, J. A. et al., (1990)) and treated with heparin or N-desulfated heparin (10 μg/ml) for 24 h. Total cell extracts (100 μg protein for fibroblasts and 200 μg protein for smooth muscle cells) were generated and subjected to SDS-PAGE followed by electrotransfer to Immobilon membrane. Membranes were incubated with anti-acetylated histone H3 (Upstate) followed by enzyme linked secondary antibody. Bands were visualized with ECL.
Primary cultures of pulmonary fibroblasts were isolated from the lungs of neonatal rats using established protocols (Foster, J. A., et al., (1990) Pulmonary fibroblasts: an in vitro model of emphysema. Regulation of elastin gene expression, J Biol Chem 265, 15544-9). The cells were maintained in Dulbecco's Minimal Essential Medium supplemented with 5% fetal bovine serum, 0.1 mM non-essential amino acid solution, 100 U/ml penicillin and 100 μg/ml streptomycin. The cells were used in second passage for all experiments. Cell number determination was made based upon assay of cellular acid phosphatase levels using a previously established method (Connolly, D. T., et al., (1986) Anal. Biochem. 152, 136-140).
Immobilon membranes were blocked for 1 hour at room temperature with blocking buffer containing 3% milk in tris buffered saline containing 0.1% tween-20 (TBST). […]

With heparin [reference compound] as the substance, how does the “inhibition of HAT activity” value (p300 HAT domain; 34 μg/mL) read?
Its value is “almost complete inhibition”.

What about the IC50 (p300 HAT domain; molecular weight ~15 kD, read-out: IC50 for HAT activity, molar equivalent) of the same substance?
Its IC50 is about 1100 nM.

What about the “level of histone H3 acetylation” value [1] of the same substance?
The value was “reduced histone H3 actetylation slightly”.
